Laboratory results as given in patent publication US4771041A, “Method for combating virus infection” (priority 1976, dated 1988).

Experiments:
[1] = target: type A influenza virion-associated RNA polymerase (Influenza A virus (A/nt/60/1968(H3N2)), UniProt P03432); assay: Inhibition of type A influenza virion-associated RNA polymerase; assay type: biochemical, Influenza A2 Aichi virus; details: mean of two experiments
Procedure: (§1) Polymerases, nucleic acid template nucleoside triphosphates, of which guanosine triphosphate is tritium-labelled, salt and buffer are mixed at 0° C. in a total volume of 125 μl (for herpes DNA polymerase, see F. below). The concentrations of the nucleoside triphosphates UTP (uridine triphosphate), CTP (cytidinetriphosphate), GTP (guanosinetriphosphate) and ATP (adenosinetriphosphate) were generall 400, 400, 400, and 2000 μM, respectively. The test compound is also added in various concentrations to the mixture obtained. A standard mixture without test compound is also prepared using the same amounts of the ingredients. The enzyme reaction, i.e. synthesis of nucleic acid, is started by incubating the mixture at 37° C. For influenza RNA polymerases the temperature is 33° C. The reaction is allowed to proceed for 60 minutes in the assay of influenza and Micrococcus polymerases. For E.coli DNA dependent RNA polymerase the time is 20 min. and for herpes DNA polymerase 30 minutes. The incubation time for calf thymus polymerases is 10 minutes. The incorporation of labelled monomer into trichloroacetic acid insoluble nucleic acid product was measured in the following way. Before and after the incubation period 50 μl are withdrawn from the mixture and applied to filter discs. These are put in 5% trichloroacetic acid solution and washed several times. After drying the discs are measured for radioactivity in a liquid scintillation counter. The difference in radioactivity between samples with and without added compound is used to calculate the inhibition of the polymerase activity. The inhibition is expressed as percentage inhibition using the radioactivity of the standard sample as basis.
A. Inhibition by phosphonoformic acid of type A influenza virion associated RNA polymerase
Influenza A2 Aichi virus was purified according to the method of Pons and Hirst, Virology 34 385 (1968). The assay mixture is described by Bishop, Obijeski and Simpson, J. Virol. 8 66 (1971).

[2] = guinea pig, in vivo
Procedure: Phosphonoformic acid and phosphonoacetic acid were used as their trisodium and disodium salts, respectively. The test substances were used in 1% solutions.
Guinea-pigs of the Dunkin-Hartley strain of both sexes and weighing 200-300 g were used. The back of the animal was shaved and depilated with Opilca® on the day before starting the application of the solutions. The back was divided into six squares in the middle of which 30 μl of the test solutions was applied. In a given group of animals the different solutions were applied in a randomized order alternating between sites. However, the same site was used for repeated application of a given solution.
The irritation was scored on scales of 0 to 3, each grade corresponding to the following specific criteria of irritation:
1=slight erythema or edema or no hair growth
2=moderate erythema or edema or skin discoloration
3=marked erythema or edema or necrosis including crust formation.
The scoring was carried out blindly using coded solutions.
The scores of all the applications for a given solution and time were added and the average score was calculated.
The solvent used was a mixture of glycerol 10.0% (w/v), Tween 80 0.1% and aq sterile ad 100. All solutions were adjusted to pH 6.5 with hydrochloric acid or aqueous sodium hydroxide as required. Thirty μl of 1.0% solutions of phosphonoformic acid and phosphonoacetic acid respectively was applied twice daily during three days to each of six guinea pigs.

[3] = system: visna virus; assay: Visna virus growth in sheep choroid plexus (SCP) cells: virus titre and morphological changes; assay type: cell-based; details: for Morphological changes Day 3 / Morphological changes Day 5 / Morphological changes Day 7: Visna virus infected cells
Procedure: Visna virus is a retrovirus that can multiply in sheep choroid (SCP) cells. The infection can be followed by titrating medium from infected cells to determine the formation of virus particles and by observing morphological changes as syncytial formation and cell degeneration.
Plates (5 cm) with primary SCP cells in medium 199 with 10% sheep serum were grown to confluence and then infected with 1×10^6 TCID50 (tissue culture infectious doses) of visna virus. One set of plates were left untreated, one set received different concentrations of phosphonoformic acid (PFA) at pH 7.2. Another set received phosphonoacetic acid (PAA) at pH 7.2. Uninfected plates were used as controls with and without PFA and PAA. The virus titre was determined 5 days after infection by the end-point titration method. The plates were checked daily in a light microscope to observe morphological changes.

[4] = system: type B influenza virion-associated RNA polymerase; assay: Inhibition of type B influenza virion-associated RNA polymerase; assay type: biochemical, influenza B Hongkong 8/73; details: 500 μM; GTP 135 μM
Procedure: as §1, with “For E.coli DNA dependent RNA polymerase the time is 20 min. and for herpes DNA polymerase 30 minutes. The incubation time for calf thymus polymerases is 10 minutes.” left out, “Before and after the incubation period 50 μl are withdrawn from the mixture and applied to filter discs. These are put in 5% trichloroacetic acid solution and washed several times.” left out, “basis. […]” for “basis.”

[5] = target: T1, reverse transcriptase from SSV (Woolly monkey sarcoma virus, UniProt P03359); assay: Cell-free reverse transcriptase inhibition, SSV; assay type: biochemical, simian sarcoma virus; details: template/primer (rA)n.(dT)10, read-out: Percent inhibition
T1 construct: Reverse transcriptase from various retroviruses have been tested in cell-free assays
Procedure: Reverse transcriptase from various retroviruses have been tested in cell-free assays for inhibition by phosphonoformic acid and phosphonoacetic acid. The assay conditions have been described by Collaborative Research, Inc, 1365 Main Street, Waltham, Mass., USA "Assay kit for mammalian viral reverse transcriptase". BLV and VV were prepared in this laboratory and all other viruses and viral enzyme were obtained from Dr. K Nilsson, Department of Pathology, University of Uppsala and from Boehringer Mannheim, Germany. Phosphonoformic acid (PFA) and phosphonoacetic acid (PAA) were added at pH 7.2 to the reaction mixtures at the start of the reaction.
Rauscher murine leukemia virus; RMuLV, visna virus; VV, avian myeloblastosis virus; AMV, bovine leukemia virus; BLV, baboon endogenous virus; BaEV, simian sarcoma virus; SSV.

[6] = target: T2, E. coli DNA dependent RNA polymerase (Escherichia coli, UniProt P0A8T7+P0A8V2); assay: Inhibition of E. coli DNA dependent RNA polymerase; assay type: biochemical
T2 construct: purchased Sigma
Procedure: as §1, with “For E.coli DNA dependent RNA polymerase the time is 20 min. and for herpes DNA polymerase 30 minutes. The incubation time for calf thymus polymerases is 10 minutes.” left out, “Before and after the incubation period 50 μl are withdrawn from the mixture and applied to filter discs. These are put in 5% trichloroacetic acid solution and washed several times.” left out, “basis. […]” for “basis.”

Sequence of type A influenza virion-associated RNA polymerase (Influenza A virus (A/nt/60/1968(H3N2)), UniProt P03432) (P03432 whole entry, looked up): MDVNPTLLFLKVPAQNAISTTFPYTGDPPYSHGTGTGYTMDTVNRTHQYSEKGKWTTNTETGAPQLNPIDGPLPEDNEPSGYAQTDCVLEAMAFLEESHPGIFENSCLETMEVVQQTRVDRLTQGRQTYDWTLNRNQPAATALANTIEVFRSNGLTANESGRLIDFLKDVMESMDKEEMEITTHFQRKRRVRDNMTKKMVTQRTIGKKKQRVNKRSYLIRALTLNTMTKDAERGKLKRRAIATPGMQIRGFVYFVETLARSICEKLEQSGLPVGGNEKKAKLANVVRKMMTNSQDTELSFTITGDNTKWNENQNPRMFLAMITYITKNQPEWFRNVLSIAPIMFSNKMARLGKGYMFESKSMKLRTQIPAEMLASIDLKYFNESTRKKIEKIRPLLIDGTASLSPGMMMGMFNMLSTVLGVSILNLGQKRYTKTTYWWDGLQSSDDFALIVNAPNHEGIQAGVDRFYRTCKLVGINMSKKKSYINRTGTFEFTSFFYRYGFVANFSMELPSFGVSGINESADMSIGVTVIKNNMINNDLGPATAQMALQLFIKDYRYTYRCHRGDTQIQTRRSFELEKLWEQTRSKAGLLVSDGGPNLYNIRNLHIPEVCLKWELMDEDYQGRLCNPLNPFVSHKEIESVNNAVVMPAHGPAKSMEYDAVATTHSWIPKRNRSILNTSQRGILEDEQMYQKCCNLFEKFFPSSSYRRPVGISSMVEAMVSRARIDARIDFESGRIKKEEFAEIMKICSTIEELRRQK
T1 sequence (P03359 642-1310): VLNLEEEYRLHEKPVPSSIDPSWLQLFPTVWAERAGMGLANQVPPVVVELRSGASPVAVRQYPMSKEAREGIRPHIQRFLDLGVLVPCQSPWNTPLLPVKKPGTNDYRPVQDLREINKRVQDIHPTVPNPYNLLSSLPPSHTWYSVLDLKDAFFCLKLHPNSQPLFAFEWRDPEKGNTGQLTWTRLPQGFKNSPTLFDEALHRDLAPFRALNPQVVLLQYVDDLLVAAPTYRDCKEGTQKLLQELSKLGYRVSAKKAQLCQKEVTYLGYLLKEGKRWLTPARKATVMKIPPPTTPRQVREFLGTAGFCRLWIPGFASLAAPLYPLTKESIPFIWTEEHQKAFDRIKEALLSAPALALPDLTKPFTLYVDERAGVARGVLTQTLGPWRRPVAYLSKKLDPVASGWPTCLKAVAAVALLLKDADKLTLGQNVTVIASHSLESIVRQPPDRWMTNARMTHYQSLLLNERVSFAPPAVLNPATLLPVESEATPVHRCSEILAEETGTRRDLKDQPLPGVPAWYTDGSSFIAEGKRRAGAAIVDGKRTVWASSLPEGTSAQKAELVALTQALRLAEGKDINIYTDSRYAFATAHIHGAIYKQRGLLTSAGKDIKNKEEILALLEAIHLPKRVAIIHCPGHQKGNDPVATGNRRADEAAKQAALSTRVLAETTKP
T2 sequence (P0A8V2 whole entry): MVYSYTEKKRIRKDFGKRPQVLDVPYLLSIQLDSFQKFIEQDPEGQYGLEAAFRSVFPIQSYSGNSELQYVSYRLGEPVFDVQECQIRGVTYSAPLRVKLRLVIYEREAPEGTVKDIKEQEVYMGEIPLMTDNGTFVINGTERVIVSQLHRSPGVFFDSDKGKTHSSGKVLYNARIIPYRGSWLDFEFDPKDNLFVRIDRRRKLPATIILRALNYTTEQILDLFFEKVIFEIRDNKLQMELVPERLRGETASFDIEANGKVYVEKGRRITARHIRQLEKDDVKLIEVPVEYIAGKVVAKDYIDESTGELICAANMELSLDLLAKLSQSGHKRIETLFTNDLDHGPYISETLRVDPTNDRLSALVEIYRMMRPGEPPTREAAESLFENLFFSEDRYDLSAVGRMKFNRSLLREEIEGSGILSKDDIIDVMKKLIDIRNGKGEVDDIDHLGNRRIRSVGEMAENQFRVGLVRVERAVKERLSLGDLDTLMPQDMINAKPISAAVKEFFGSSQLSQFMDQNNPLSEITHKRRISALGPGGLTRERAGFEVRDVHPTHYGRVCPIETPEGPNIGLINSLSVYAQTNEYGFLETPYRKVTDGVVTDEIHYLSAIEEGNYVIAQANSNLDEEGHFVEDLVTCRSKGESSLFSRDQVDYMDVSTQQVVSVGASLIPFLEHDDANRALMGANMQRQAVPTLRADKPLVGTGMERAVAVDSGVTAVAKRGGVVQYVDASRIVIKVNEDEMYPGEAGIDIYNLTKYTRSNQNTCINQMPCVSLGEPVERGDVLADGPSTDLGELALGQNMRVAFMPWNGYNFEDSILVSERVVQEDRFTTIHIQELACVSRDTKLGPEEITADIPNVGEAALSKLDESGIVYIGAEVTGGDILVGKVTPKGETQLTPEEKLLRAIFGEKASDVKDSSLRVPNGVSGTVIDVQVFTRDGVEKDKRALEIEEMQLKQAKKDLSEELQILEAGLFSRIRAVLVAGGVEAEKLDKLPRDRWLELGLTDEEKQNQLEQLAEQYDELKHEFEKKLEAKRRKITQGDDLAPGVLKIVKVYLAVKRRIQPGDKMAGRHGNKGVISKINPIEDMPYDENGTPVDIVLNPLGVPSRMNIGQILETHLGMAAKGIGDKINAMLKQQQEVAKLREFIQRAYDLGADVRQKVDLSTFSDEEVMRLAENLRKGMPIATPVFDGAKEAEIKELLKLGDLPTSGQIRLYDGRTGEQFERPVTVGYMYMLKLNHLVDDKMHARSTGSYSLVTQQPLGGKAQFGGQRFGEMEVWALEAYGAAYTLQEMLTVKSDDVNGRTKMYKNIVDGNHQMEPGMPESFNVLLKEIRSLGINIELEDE
T2 sequence (P0A8T7 whole entry): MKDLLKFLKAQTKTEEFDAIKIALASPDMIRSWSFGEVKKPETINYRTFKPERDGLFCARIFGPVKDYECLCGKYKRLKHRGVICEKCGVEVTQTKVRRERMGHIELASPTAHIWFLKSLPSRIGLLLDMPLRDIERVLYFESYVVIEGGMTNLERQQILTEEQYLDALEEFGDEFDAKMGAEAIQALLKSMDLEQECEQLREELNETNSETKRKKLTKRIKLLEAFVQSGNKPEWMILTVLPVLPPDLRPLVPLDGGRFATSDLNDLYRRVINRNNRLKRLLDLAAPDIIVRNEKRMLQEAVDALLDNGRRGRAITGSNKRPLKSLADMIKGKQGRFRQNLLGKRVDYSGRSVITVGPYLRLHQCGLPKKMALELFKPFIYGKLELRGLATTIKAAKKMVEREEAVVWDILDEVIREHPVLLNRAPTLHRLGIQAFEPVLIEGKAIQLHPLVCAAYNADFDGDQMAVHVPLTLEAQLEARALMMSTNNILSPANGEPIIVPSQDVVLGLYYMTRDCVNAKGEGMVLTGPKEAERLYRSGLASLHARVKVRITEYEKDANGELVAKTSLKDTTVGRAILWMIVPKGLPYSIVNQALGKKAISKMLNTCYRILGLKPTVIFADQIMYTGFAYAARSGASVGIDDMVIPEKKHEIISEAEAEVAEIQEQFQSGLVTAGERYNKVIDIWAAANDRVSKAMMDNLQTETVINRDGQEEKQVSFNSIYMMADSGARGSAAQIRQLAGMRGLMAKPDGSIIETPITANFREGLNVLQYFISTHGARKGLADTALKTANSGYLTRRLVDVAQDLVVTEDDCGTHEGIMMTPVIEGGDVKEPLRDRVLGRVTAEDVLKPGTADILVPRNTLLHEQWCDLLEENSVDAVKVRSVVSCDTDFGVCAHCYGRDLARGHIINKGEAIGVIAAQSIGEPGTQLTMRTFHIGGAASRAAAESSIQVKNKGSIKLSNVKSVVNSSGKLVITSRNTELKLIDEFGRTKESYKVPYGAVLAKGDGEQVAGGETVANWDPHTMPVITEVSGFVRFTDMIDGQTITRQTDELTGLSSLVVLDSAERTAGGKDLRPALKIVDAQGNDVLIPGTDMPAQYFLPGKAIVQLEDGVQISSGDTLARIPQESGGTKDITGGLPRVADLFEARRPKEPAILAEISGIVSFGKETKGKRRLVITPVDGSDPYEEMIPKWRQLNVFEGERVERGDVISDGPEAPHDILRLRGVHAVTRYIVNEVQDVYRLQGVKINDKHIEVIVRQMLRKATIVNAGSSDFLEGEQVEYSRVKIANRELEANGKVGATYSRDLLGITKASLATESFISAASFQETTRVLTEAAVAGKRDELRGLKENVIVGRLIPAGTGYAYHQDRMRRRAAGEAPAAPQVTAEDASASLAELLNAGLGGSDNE
T2 sequence (P0A7Z4 whole entry, further chain): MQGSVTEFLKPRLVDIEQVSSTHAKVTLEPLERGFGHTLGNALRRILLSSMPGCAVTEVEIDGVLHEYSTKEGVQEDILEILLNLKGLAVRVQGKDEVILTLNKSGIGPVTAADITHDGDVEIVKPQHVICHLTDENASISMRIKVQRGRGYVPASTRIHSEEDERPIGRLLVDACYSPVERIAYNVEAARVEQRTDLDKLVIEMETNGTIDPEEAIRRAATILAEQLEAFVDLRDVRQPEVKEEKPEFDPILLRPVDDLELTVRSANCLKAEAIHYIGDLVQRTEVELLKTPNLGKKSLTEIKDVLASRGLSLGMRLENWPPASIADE
T2 sequence (P0A800 whole entry, further chain): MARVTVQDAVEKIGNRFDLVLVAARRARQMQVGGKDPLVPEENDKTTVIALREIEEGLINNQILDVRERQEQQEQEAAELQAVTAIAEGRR

## O=C(O)P(=O)(O)O [phosphonoformic acid]
[1]; 0.1 μM
  inhibition at 0.1 µM: 21%
[1]; 0.50 μM
  inhibition at 0.5 µM: > 50%
[1]; 1.00 μM
  inhibition at 1 µM: 79%
[1]; 10 μM
  inhibition at 10 µM: 91%
[1]; 100 μM
  inhibition at 100 µM: 95%
[1]; 500 μM
  inhibition at 500 µM: 93%
[2]
  skin condition after two weeks: the skin is normal with hair after two weeks
[3]; 100 μM
  Morphological changes Day 3: -
  Morphological changes Day 5: + (10% cell degeneration)
  Morphological changes Day 7: ++ (25% cell degeneration)
[3]; 500 μM
  Morphological changes Day 3: -
  Morphological changes Day 5: -
  Morphological changes Day 7: + (10% cell degeneration)
[3]; Visna-maedi virus, 120 h, SCP cells, virus titre 5 days after infection, read-out: concentration giving 50 percent reduction of virus multiplication
  IC50: 20 µM
[4]
  Inhibition: 100%
[5]; 10 μM
  inhibition at 10 µM: 92%
[5]; 100 μM
  inhibition at 100 µM: > 99%
[5]; 500 μM
  inhibition at 500 µM: > 99%
[6]
  inhibition at 500 µM: 3%
